The values that follow are results of earlier work, collected in publication PMC7770979 (Molecular Metabolism, 2020).

This data set has as its system IR.

In the case of “SerA12 substitution by alanine: insulin with SerA12 substitution by alanine (ref 34)”, the “Affinity to IR, % of insulin” value is reported as 36%.
